Ends that are not written are not given here.
What was measured:
[1] = system: aggregate containing GH-producing cells; test: In vitro GH release from aggregates containing GH-producing cells, ELISA; format: cell-based, human; settings: GRF 100 ng/ml, 37° C., 30 min; aggregates differentiated with hydrocortisone 1 μg/ml days 72-84; day 84
Method: In addition to the method of Example 10, in vitro hormone secretory capacity was analyzed using the aggregate containing GH-producing cells differentiated in a medium containing hydrocortisone (1 μg/ml) from days 72 to 84 of culture. Using a 1.5 ml Eppendorf tube containing 500 μl of HBSS containing 33 aggregates at day 84 of culture, the aggregates were incubated in the presence or absence of GRF (100 ng/ml) at 37° C. for 30 min. The concentration of GH in the culture supernatant was quantified by the ELISA method.
In addition to the method of Example 10, in vitro hormone secretory capacity was analyzed using the aggregate containing GH-producing cells differentiated in a medium containing dexamethasone (40 ng/ml) from days 70 to 84 of culture. Using a 1.5 ml Eppendorf tube containing 750 μl of a medium containing 30 aggregates at day 84 of culture, the aggregates were incubated in the presence of GRF (0.1, 1, 10 μg/ml) at 37° C. for 30 min. The concentration of GH in the culture supernatant was quantified by the ELISA method. In addition, in order to investigate a potential of somatostatin to suppress GH secretion, 18 aggregates at day 98 of culture were incubated in the presence or absence of somatostatin (100 ng/ml) at 37° C. for 90 min, and effects on GH release after GRF treatment were analyzed.

[2] = system: Human ES cells (KhES-1); test: Differentiation of human ES cell aggregates in serum-free suspension culture (SFEBq), fluorescent antibody method; format: cell-based
Source text: Human ES cells (KhES-1) were subjected to maintenance culture by a conventional method on MEF and used. To monitor differentiation induction into a hypothalamus tissue, KhES-1 wherein Venus cDNA is knocked-in into the gene of Rx which is a hypothalamus neuroepithelium marker was used. To differentiate human ES cells by serum-free suspension culture of aggregate (SFEBq method), human ES cells were dispersed to single cells by enzyme by the method of Nakano et al. (Cell Stem Cell, 2012), and reaggregated in a low cell adhesive V-bottom 96 well plate (SUMITOMO BAKELITE). 5,000 cells were seeded per well, and cultured in the following differentiation medium at 5% CO2, 37° C. gfCDM medium (growth-factor-free Chemically Defined Medium; Wataya et al., PNAS, 2008)+5% KSR (Invitrogen).
With the day of seeding as day 0 of differentiation culture, 20 μM Y-27632 (ROCK inhibitor; inhibitor of cell death during dispersion: Watanabe et al., Nature Biotechnology, 2007) was added from day 0 to day 3, and a half of the medium was exchanged with a differentiation medium free of Y-27632 on days 3 and 6 of culture. From day 3 to day 18 of culture, BMP4 (final concentration 5 nM) was added to the medium. On and after day 18, a half of the medium was exchanged every 3 days with a medium free of BMP4. […] On and after day 18, the oxygen partial pressure during the culture was set to 40%. Tissue differentiation was analyzed by a fluorescent antibody method.
The cell aggregates derived from human ES cells and simultaneously containing ventral hypothalamus tissue and epidermal placode were formed by the method of Example 1, culture was continued until day 27 or day 30 of culture under similar conditions, and the aggregates were analyzed by a fluorescent antibody method. In some culture, FGF2 (final concentration 20 ng/ml) was added to the medium from day 15 of culture.
By the method of Example 1, an influence of the presence or absence of BMP4 addition on the differentiation of cell aggregates was analyzed by a fluorescent antibody method.
By the method of Example 1, an influence of the presence or absence of the addition of hedgehog signal agonist SAG on the differentiation of cell aggregate was analyzed by a fluorescent antibody method.
In addition to the method of Example 8, differentiation of hypophysial placode reacted with Notch signal inhibitor DAPT (10 μM) from day 72 to day 82 of culture was analyzed by a fluorescent antibody method.

[3] = system: mouse system; test: Exogenous BMP4 added to mouse system; format: cell-based
[4] = system: Tbx19; test: Tbx19 expression in aggregates by qPCR; format: cell-based, human; settings: DAPT 10 μM day 65 to 74; aggregates on day 74
Method: According to the method of Example 5, hypophysial placode derived from human ES cells was formed, and cultured for a long term. DAPT (10 μM), a Notch signal inhibitor, was allowed to act thereon from day 65 to day 74 of culture, and the effect thereof was analyzed by a qPCR method.

[5] = system: aggregates containing ACTH-producing cells; test: In vitro ACTH release from aggregates containing ACTH-producing cells, ELISA; format: cell-based, human; settings: 37° C.
Method: In vitro hormone secretory capacity was analyzed using the aggregates containing ACTH-producing cells produced by the method of Example 5. Using a 1.5 ml Eppendorf tube containing 250 μl of HBSS(−) containing 16 aggregates at day 80 of culture, the aggregates were incubated in the presence or absence of CRH (1 μg/ml) at 37° C. for 10 min. The concentration of ACTH in the culture supernatant was quantified by the ELISA method.
Furthermore, to examine feedback suppressive ability due to downstream hormone (glucocorticoid), 16 aggregates on day 80 of culture were preincubated in the presence or absence of hydrocortisone (20 μg/ml) at 37° C. for 3 hr, and the effect of release of ACTH after CRH treatment was analyzed.

[6] = BMP4 5 nM day 3-18 vs no addition, day 24
[7] = SAG 2 μM from day 6, with BMP4, day 24 and 27

GRF: stimulus inducing release of GH from GH-producing cells (YADAIFTNSYRKVLGQLSARKLLQDIMSRQQGESNQERGARARL; ends and bridges not checked; UniProt P01286 32-75, looked up)
GH concentration in culture supernatant vs incubation in absence of GRF [1]: not less than 6 fold

BMP4: bone morphogenetic factor signal transduction pathway activating substance; a known cytokine
differentiation of neural tissue in the aggregate [2, 6]: differentiation induction of neural tissue of hypothalamus
formation of surface ectoderm [2, 6]: active formation of surface ectoderm
formation of neuroepithelial tissue (hypothalamus) inside the cell aggregate [3]: acted inhibitingly on the formation of the neuroepithelial tissue (hypothalamus)
formation of surface ectoderm [3]: promoted formation of surface ectoderm

CN[C@H]1CC[C@H](N(Cc2cccc(-c3ccncc3)c2)C(=O)c2sc3ccccc3c2Cl)CC1 [SAG, 3-Chloro-N-[trans-4-(methylamino)cyclohexyl]-N-[[3-(4-pyridinyl)phenyl]methyl]-benzo[b]thiophene-2-carboxamide]
tissue differentiated under BMP4 non-addition conditions ([2]; BMP4 not added, SAG 200 nM d6-25, day 24): FoxG1-positive and Nkx2.1-positive basal ganglion was differentiated
formation of hypophysial placode on the surface [2, 7]: hypophysial placode was formed on the surface
tissue formed in the inside of the aggregates [2, 7]: ventral hypothalamus tissue (Rx::Venus-positive, Chx10-negative, Nkx2.1-positive) was formed in the inside of the aggregates

C[C@H](NC(=O)Cc1cc(F)cc(F)c1)C(=O)N[C@H](C(=O)OC(C)(C)C)c1ccccc1 [DAPT, N—[N-(3,5-difluorophenacetyl)-1-alanyl]-S-phenylglycine t-butyl ester]
endocrine cells found in hypophysial placode after DAPT ([2]; DAPT 10 μM day 72 to 82): LH-producing cells and FSH-producing cells were found in the hypophysial placode
increase of Tbx19 expression vs non-treatment group [4]: ≥ 8 times

FGF2: known cytokine also called basic fibroblast growth factor (bFGF)
increase of formation of hypophysial placode ([2]; FGF2 20 ng/ml from day 15 of culture, day 27/30 aggregates): 30%

CRH: hypothalamic stimulus inducing release of ACTH from ACTH-producing cells (SEEPPISLDLTFHLLREVLEMARAEQLAQQAHSNRKLMEII; ends and bridges not checked; UniProt P06850 154-194, looked up)
ACTH concentration in culture supernatant vs incubation in absence of CRH ([5]; CRH 1 μg/ml, 10 min, 16 aggregates at day 80): not less than 5 fold

C[C@]12CCC(=O)C=C1CC[C@@H]1[C@@H]2[C@@H](O)C[C@@]2(C)[C@H]1CC[C@]2(O)C(=O)CO [hydrocortisone]
ACTH concentration after CRH treatment relative to preincubation without hydrocortisone ([5]; hydrocortisone 20 μg/ml preincubation 3 hr, day 80 aggregates): less than one-sevenths
